The values that follow come from the supplement of paper PMC10307832.

Holding throughout (experiment): relative viability (nuclei count vs DMSO), 5 days (fraction); higher = more cells survive
One experiment concerns CAL-12T. Put shortly: (§1)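 Relative viability equals treated-well nuclei counts divided by vehicle-well nuclei counts. Counts came from 4× images of lung cancer cell lines grown in 1536-well plates for 5 days after pin-tool dosing on the day after seeding. Dosing used one drug alone or a fixed anchor-drug dose plus five library-drug doses (not always all listed) in √10 steps, and values are medians of duplicate plates.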

A further experiment has as its system NCI-H1648. The gist of the method:
as §1

The next experiment concerns IA-LM. Put shortly: as §1
The test system of a further experiment is A549. Put shortly:
as §1

Another experiment deals with NCI-H1703. Put shortly:
as §1

Take `Clc1ccc(Nc2nnc(Cc3ccncc3)c3ccccc23)cc1` [Vatalanib] + O=C(CCCCCCC(=O)Nc1ccccc1)NO [Vorinostat] (partner 1 µM): the relative viability was 0.872 in the experiment with CAL-12T (first compound 0.04 µM); 0.714 in the experiment on CAL-12T (first compound 0.1265 µM); 0.734 in the experiment with CAL-12T (first compound 0.4 µM); 0.737 in the experiment on CAL-12T (first compound 1.265 µM); 0.784 in the experiment with CAL-12T (first compound 4 µM); 0.32 in the experiment on NCI-H1648 (first compound 0.04 µM). Besides, the relative viability with NCI-H1648 (first compound 0.1265 µM) was 0.644; with NCI-H1648 (first compound 0.4 µM) it was 0.562; in the experiment on NCI-H1648 (first compound 1.265 µM) it was 0.42; in the experiment on NCI-H1648 (first compound 4 µM), 0.444; in the experiment on IA-LM (first compound 0.04 µM) it was 0.952; with IA-LM (first compound 0.1265 µM) it was 1.24. Also, the relative viability with IA-LM (first compound 0.4 µM) turned out to be 0.895; in the experiment on IA-LM (first compound 1.265 µM) it was 0.99; in the experiment with IA-LM (first compound 4 µM) it was 0.976.

Regarding `CC(C)Oc1cc(Nc2nc(N[C@@H](C)c3ccc(F)cn3)ncc2Cl)n[nH]1` [AZ23] + Nc1nc2[nH]cc(CCc3ccc(C(=O)N[C@@H](CCC(=O)O)C(=O)O)cc3)c2c(=O)[nH]1 [Pemetrexed] (partner 0.2 µM), the relative viability came out at 1.24 with CAL-12T (first compound 0.03162 µM); 1.23 in the experiment with CAL-12T (first compound 0.3162 µM); 0.706 in the experiment on NCI-H1648 (first compound 0.01 µM); 0.632 with NCI-H1648 (first compound 0.03162 µM); 0.807 in the experiment with NCI-H1648 (first compound 0.3162 µM).

With `CC(C)Oc1cc(Nc2nc(N[C@@H](C)c3ccc(F)cn3)ncc2Cl)n[nH]1` [AZ23] + Nc1ncn([C@H]2C[C@H](O)[C@@H](CO)O2)c(=O)n1 [Decitabine] (partner 2 µM), the relative viability with A549 (first compound 0.01 µM) came to 0.3; in the experiment with A549 (first compound 0.03162 µM), 0.325; in the experiment on A549 (first compound 0.3162 µM), 0.281; in the experiment on NCI-H1648 (first compound 0.01 µM), 0.546; with NCI-H1648 (first compound 0.03162 µM), 0.534; in the experiment on NCI-H1648 (first compound 0.3162 µM), 0.509.

On to `C[C@@H]1CN(CC(=O)Nc2ccc3c(c2)Cc2cccc(-c4cc(=O)cc(N5CCOCC5)o4)c2S3)C[C@H](C)O1` + O=C(CCCCCCC(=O)Nc1ccccc1)NO [Vorinostat] (partner 1 µM), for which the relative viability in the experiment on CAL-12T (first compound 0.04 µM) is 0.719; in the experiment with CAL-12T (first compound 0.1265 µM), 0.623; in the experiment with CAL-12T (first compound 0.4 µM), 0.739; with CAL-12T (first compound 4 µM), 0.377; with NCI-H1648 (first compound 0.04 µM), 0.505; with NCI-H1648 (first compound 0.1265 µM), 0.605. The relative viability in the experiment on NCI-H1648 (first compound 0.4 µM) turned out to be 0.644; in the experiment on NCI-H1648 (first compound 4 µM) it was 0.528; with IA-LM (first compound 0.04 µM), 0.819; with IA-LM (first compound 0.1265 µM), 0.933; in the experiment on IA-LM (first compound 0.4 µM), 1.09; in the experiment on IA-LM (first compound 4 µM) it was 0.897.

As for `CC(C)Oc1cc(Nc2nc(N[C@@H](C)c3ccc(F)cn3)ncc2Cl)n[nH]1` [AZ23] + O=C(CCCCCCC(=O)Nc1ccccc1)NO [Vorinostat] (partner 1 µM), the relative viability was found to be 1.03 with CAL-12T (first compound 0.03162 µM); 0.88 in the experiment on CAL-12T (first compound 0.3162 µM); 0.373 in the experiment on NCI-H1648 (first compound 0.01 µM); 0.567 in the experiment with NCI-H1648 (first compound 0.03162 µM); 0.316 with NCI-H1648 (first compound 0.3162 µM); 0.895 with IA-LM (first compound 0.01 µM). For the same compound, the values for the relative viability in the experiment on IA-LM (first compound 0.03162 µM) and with IA-LM (first compound 0.3162 µM) were 1.05 and 1.06, respectively.

For `C[C@@H]1CN(CC(=O)Nc2ccc3c(c2)Cc2cccc(-c4cc(=O)cc(N5CCOCC5)o4)c2S3)C[C@H](C)O1` + CC(=O)Nc1cccc(-n2c(=O)n(C3CC3)c(=O)c3c(Nc4ccc(I)cc4F)n(C)c(=O)c(C)c32)c1 [Trametinib] (partner 0.02 µM), the relative viability in the experiment with CAL-12T (first compound 0.04 µM) stood at 0.309; with CAL-12T (first compound 0.1265 µM), 0.306; with CAL-12T (first compound 0.4 µM), 0.304; with CAL-12T (first compound 4 µM), 0.205; in the experiment on NCI-H1648 (first compound 0.04 µM) it was 0.484; in the experiment on NCI-H1648 (first compound 0.1265 µM), 0.435. In addition, the relative viability was 0.474 in the experiment with NCI-H1648 (first compound 0.4 µM) and 0.527 in the experiment on NCI-H1648 (first compound 4 µM).

For the compound `COc1cc(N2CCC(C(N)=O)CC2)ccc1Nc1nc(N)c(Cl)c(Nc2ccccc2S(=O)(=O)C(C)C)n1` [HG-5-88-01] + Nc1nc2[nH]cc(CCc3ccc(C(=O)N[C@@H](CCC(=O)O)C(=O)O)cc3)c2c(=O)[nH]1 [Pemetrexed] (partner 0.2 µM), the relative viability came out at 1.25 in the experiment on CAL-12T (first compound 0.04 µM); 1.14 in the experiment with CAL-12T (first compound 0.1265 µM); 1.24 in the experiment with CAL-12T (first compound 0.4 µM); 0.995 in the experiment with CAL-12T (first compound 1.265 µM); 0.754 in the experiment with CAL-12T (first compound 4 µM); 0.772 in the experiment on NCI-H1648 (first compound 0.04 µM). The relative viability in the experiment with NCI-H1648 (first compound 0.1265 µM) worked out at 0.719; in the experiment on NCI-H1648 (first compound 0.4 µM), 0.605; with NCI-H1648 (first compound 1.265 µM) it was 0.596; in the experiment on NCI-H1648 (first compound 4 µM), 0.562.

For the compound `CC(C)Oc1cc(Nc2nc(N[C@@H](C)c3ccc(F)cn3)ncc2Cl)n[nH]1` [AZ23] + CC(=O)c1c(C)c2cnc(Nc3ccc(N4CCNCC4)cn3)nc2n(C2CCCC2)c1=O [Palbociclib] (partner 0.5 µM), the relative viability is 0.285 with CAL-12T (first compound 0.03162 µM); 0.414 in the experiment on CAL-12T (first compound 0.3162 µM); 0.227 in the experiment with NCI-H1648 (first compound 0.01 µM); 0.208 in the experiment with NCI-H1648 (first compound 0.03162 µM); 0.23 in the experiment on NCI-H1648 (first compound 0.3162 µM).

`COc1cc(N2CCC(C(N)=O)CC2)ccc1Nc1nc(N)c(Cl)c(Nc2ccccc2S(=O)(=O)C(C)C)n1` [HG-5-88-01] + CC(=O)Nc1cccc(-n2c(=O)n(C3CC3)c(=O)c3c(Nc4ccc(I)cc4F)n(C)c(=O)c(C)c32)c1 [Trametinib] (partner 0.02 µM): the relative viability with CAL-12T (first compound 0.04 µM) is 0.377; with CAL-12T (first compound 0.1265 µM), 0.378; with CAL-12T (first compound 0.4 µM) it was 0.3; in the experiment with CAL-12T (first compound 1.265 µM), 0.227; in the experiment with CAL-12T (first compound 4 µM), 0.201; in the experiment with NCI-H1648 (first compound 0.04 µM), 0.485. Also, the relative viability in the experiment on NCI-H1648 (first compound 0.1265 µM) is 0.459; in the experiment with NCI-H1648 (first compound 0.4 µM) it was 0.417; in the experiment on NCI-H1648 (first compound 1.265 µM), 0.352; with NCI-H1648 (first compound 4 µM), 0.316.

With `CC(C)Oc1cc(Nc2nc(N[C@@H](C)c3ccc(F)cn3)ncc2Cl)n[nH]1` [AZ23] + CC(=O)Nc1cccc(-n2c(=O)n(C3CC3)c(=O)c3c(Nc4ccc(I)cc4F)n(C)c(=O)c(C)c32)c1 [Trametinib] (partner 0.02 µM), the relative viability in the experiment with CAL-12T (first compound 0.03162 µM) amounted to 0.28; in the experiment with CAL-12T (first compound 0.3162 µM) it was 0.368; with NCI-H1648 (first compound 0.01 µM) it was 0.374; with NCI-H1648 (first compound 0.03162 µM) it was 0.427; with NCI-H1648 (first compound 0.3162 µM) it was 0.314.

With `Clc1ccc(Nc2nnc(Cc3ccncc3)c3ccccc23)cc1` [Vatalanib] + Nc1nc2[nH]cc(CCc3ccc(C(=O)N[C@@H](CCC(=O)O)C(=O)O)cc3)c2c(=O)[nH]1 [Pemetrexed] (partner 0.2 µM), the relative viability in the experiment on CAL-12T (first compound 0.04 µM) is 1.15; in the experiment on CAL-12T (first compound 0.1265 µM), 1.15; in the experiment on CAL-12T (first compound 0.4 µM), 1.19; with CAL-12T (first compound 1.265 µM) it was 1.12; in the experiment with CAL-12T (first compound 4 µM), 1.22; in the experiment with NCI-H1648 (first compound 0.04 µM), 0.67. The relative viability in the experiment on NCI-H1648 (first compound 0.1265 µM) came out at 0.674; in the experiment with NCI-H1648 (first compound 0.4 µM), 0.691; with NCI-H1648 (first compound 1.265 µM), 0.741; in the experiment with NCI-H1648 (first compound 4 µM), 0.718.

With `C[C@@H]1CN(CC(=O)Nc2ccc3c(c2)Cc2cccc(-c4cc(=O)cc(N5CCOCC5)o4)c2S3)C[C@H](C)O1` + NC(=O)Nc1cc(-c2cccc(F)c2)sc1C(=O)N[C@H]1CCCNC1 [AZD7762] (partner 0.2 µM), the relative viability with CAL-12T (first compound 0.04 µM) came out at 0.644; with CAL-12T (first compound 0.1265 µM), 0.565; in the experiment on CAL-12T (first compound 0.4 µM), 0.594; with CAL-12T (first compound 4 µM) it was 0.38; with NCI-H1703 (first compound 0.04 µM), 0.137; in the experiment on NCI-H1703 (first compound 0.1265 µM) it was 0.11. Moreover, the relative viability in the experiment with NCI-H1703 (first compound 0.4 µM) worked out at 0.141; in the experiment on NCI-H1703 (first compound 4 µM), 0.117; in the experiment on NCI-H1648 (first compound 0.04 µM), 0.519; with NCI-H1648 (first compound 0.1265 µM) it was 0.574; in the experiment with NCI-H1648 (first compound 0.4 µM) it was 0.961; in the experiment with NCI-H1648 (first compound 4 µM) it was 0.604.

Turning to `COc1cc(N2CCC(C(N)=O)CC2)ccc1Nc1nc(N)c(Cl)c(Nc2ccccc2S(=O)(=O)C(C)C)n1` [HG-5-88-01] + NC(=O)Nc1cc(-c2cccc(F)c2)sc1C(=O)N[C@H]1CCCNC1 [AZD7762] (partner 0.2 µM), the relative viability with CAL-12T (first compound 0.04 µM) is 0.71; with CAL-12T (first compound 0.1265 µM), 0.607; with CAL-12T (first compound 0.4 µM), 0.501; in the experiment with CAL-12T (first compound 1.265 µM), 0.539; with CAL-12T (first compound 4 µM), 0.399; in the experiment on NCI-H1703 (first compound 0.04 µM) it was 0.106. Further, the relative viability with NCI-H1703 (first compound 0.1265 µM) is 0.133; with NCI-H1703 (first compound 1.265 µM), 0.122; in the experiment on NCI-H1703 (first compound 4 µM), 0.124; in the experiment with NCI-H1648 (first compound 0.04 µM) it was 0.63; in the experiment with NCI-H1648 (first compound 0.1265 µM), 0.624; in the experiment with NCI-H1648 (first compound 0.4 µM), 0.695. For the same compound, the relative viability with NCI-H1648 (first compound 1.265 µM) is 0.683; in the experiment with NCI-H1648 (first compound 4 µM), 0.654.
